Test results: patent publication US20190369122A1, “METABOLIC DISORDERS” (priority 2016, published 2019)

Experiments:
[1] = system: insulin signaling components; assay: IRS and Akt in liver, muscle and WAT of CONVR mice; assay type: in vivo, mouse
Experimental: An intraperitoneal glucose tolerance test (using 1 g glucose per kg body weight) was then performed after a 4 h fast. Blood glucose levels were measured from tail blood using HemoCue201+analyzer (HemoCue, Angelholm, Sweden). Liver and plasma samples were collected after a 4 h fast. Mice were under isoflurane anesthesia and killed by cervical dislocation. Fresh liver was taken and snap-frozen in liquid nitrogen and stored at −80° C. until protein extraction.
Snap-frozen liver and harvested cells were lysed in buffer containing 50 mM Tris-HCl (pH 7.4), 150 mM NaCl, 1 mM EDTA, 1 mM Na3VO4, 20 mM NaF, 10 mM glycerophosphate, 1 mM PMSF, 10% glycerol, 1% Triton X-100 and protease inhibitor cocktail. For immunoprecipitation, the cell lysates were obtained in 0.3% CHAPS-containing lysis buffer, sonicated and centrifuged at 20,000 g for 15 min at 4° C., and the supernatant was incubated with 20 μl of anti-FLAG beads (Sigma) at 4° C. for 4 h under gentle agitation.

[2] = system: amino acid-deprived primary hepatocytes; assay: Amino acid-deprived primary hepatocytes (immunoblot); assay type: cell-based, mouse; details: absence of amino acids; 100 μM for 2 h
Experimental: Primary hepatocytes were isolated from C57BL/6J mice by digesting liver with perfusion of collagenase type IV as described previously. After perfusion, 16×10^5 cells were plated on collagen-coated 60 mm dishes in Dulbecco's modified Eagle's medium (DMEM)/F12 supplemented with fetal bovine serum (FBS), penicillin/streptomycin and 100 nM dexamethasone. After 4 h, the medium was changed to DMEM/F12 containing penicillin/streptomycin.

## O=C(O)CCc1cnc[nH]1 [imidazole propionate]
[1]; 3-day injection vs vehicle
  basal Akt S473 phosphorylation in liver, muscle and WAT: higher
[1]; 3-day injections
  IRS levels in liver, muscle or WAT: did not reduce
[2]
  S6K1 phosphorylation: strongly induced
